Assay results published in patent publication US8158621B2, “Methods of treating or preventing autoimmune diseases with 2,4-pyrimidinediamine compounds” (Rigel Pharmaceuticals, Inc., priority 2002, dated 2012).

Assays:
[1] = test system: cultured human mast cells (CHMC); assay: CHMC low cell density IgE activation: tryptase assay; assay type: cell-based
Method in brief: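 Low-density CHMC assay: donor-adjusted 1000-1500 cells/well, MT buffer, 1 hr 37° C preincubation; anti-IgE stimulus 30 min 37° C versus MT-only controls; supernatant tryptase by substrate, 30 min RT.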

[2] = test system: cultured human mast cells (CHMC); assay: CHMC low cell density ionomycin activation: tryptase assay; assay type: cell-based
[3] = test system: basophil cells (human peripheral blood); assay: Basophil anti-IgE activation: histamine release assay; assay type: cell-based; conditions: basophils, anti-IgE activation, histamine release; read-out: Basophils anti-IgE Histamine IC50
Method: (§1) The basophil activation assay was carried out using whole human peripheral blood from donors allergic to dust mites with the majority of the red blood cells removed by dextran sedimentation. Human peripheral blood was mixed 1:1 with 3% dextran T500 and RBCs were allowed to settle for 20-25min. The upper fraction was diluted with 3 volumes of D-PBS and cells were spun down for 10 min at 1500 rpm, RT. Supernatant was aspirated and cells were washed in an equal volume MT-buffer. Finally, cells were resuspended in MT-buffer containing 0.5% DMSO in the original blood volume. 80 uL cells were mixed with 20 uL compound in the presence of 0.5% DMSO, in triplicate, in a V-bottom 96-well tissue culture plate. A dose range of 8 compound concentrations was tested resulting in a 10-point dose response curve including maximum (stimulated) and minimum (unstimulated) response. […] The cells were stimulated for 30 minutes at 37° C., 5% CO2. The plate was spun for 10 min at 1500 rpm at room temperature and 80 uL the supernatant was harvested for histamine content analysis using the histamine ELISA kit supplied by Immunotech. The ELISA was performed according to supplier's instructions.

[4] = test system: basophil cells (human peripheral blood); assay: Basophil dustmite activation: histamine release assay; assay type: cell-based; conditions: basophils, dust mite activation
Method: as §1

[5] = test system: basophil cells (human peripheral blood); assay: Basophil ionomycin activation: histamine release assay; assay type: cell-based; conditions: basophils, ionomycin activation, histamine release; read-out: Basophils Ionomycin Histamine IC50
Method in brief: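 Dextran-sedimented leukocytes from peripheral blood of dust-mite-allergic human donors were incubated with compound (8 concentrations, 0.5% DMSO, triplicate) and then stimulated with 2 μM ionomycin stock (20 μl added) for 30 min at 37° C. Histamine released into the supernatant was measured by ELISA.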

[6] = test system: cultured human mast cells (CHMC); assay: CHMC high cell density IgE activation: hexos; assay type: cell-based
[7] = test system: cultured human mast cells (CHMC); assay: CHMC high cell density IgE activation: tryptase; assay type: cell-based
[8] = test system: cultured human mast cells (CHMC); assay: CHMC high cell density IgE activation: histamine; assay type: cell-based
Method in brief: (§2)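 IgE-sensitized CHMC at 1-2 ×10^6 cells/ml were preincubated with compound (0.5% DMSO) for 1 h at 37 °C, then stimulated with anti-IgE for 1 h before supernatant collection. Pellets were reincubated with compound for 7 h at 37 °C, and mediators were measured by ELISA on diluted supernatants.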

[9] = test system: cultured human mast cells (CHMC); assay: CHMC high cell density IgE activation: TNFalpha; assay type: cell-based; conditions: read-out: CHMC high density TNF-alpha
Method in brief: as §2

[10] = test system: cultured human mast cells (CHMC); assay: CHMC high cell density IgE activation: IL-13; assay type: cell-based
Method: After sensitizing, cells are counted, pelleted (1000 rpm, 5-10 minutes), and resuspended at 1-2 ×10^6 cells/ml in MT buffer. Add 100 ul of cell suspension to each well and 100 ul of compound dilutions. The final vehicle concentration is 0.5% DMSO. Incubate at 37° C. (5% CO2) for 1 hour. After 1 hour of compound treatment, stimulate cells with 6× anti-IgE. Mix wells with the cells and allow plates to incubate at 37° C. (5% CO2) for one hour. After 1 hour incubation, pellet cells (10 minutes, 1000 RPM) and collect 200 ul per well of the supernatant, being careful not to disturb pellet. Place the supernatant plate on ice. During the 7-hour step (see next) perform tryptase assay on supernatant that had been diluted 1:500. Resuspend cell pellet in 240 ul of CM media containing 0.5% DMSO and corresponding concentration of compound. Incubate CHMC cells for 7 hours at 37° C. (5% CO2). After incubation, pellet cells (1000 RPM, 10 minutes) and collect 225 ul per well and place in −80° C. until ready to perform ELISAS. ELISAS are performed on appropriately diluted samples (determined empirically for each donor cell population so that the sample measurement falls within the standard curve) following the supplier's instructions.

[11] = test system: Human Jurkat T-cells (clone N); assay: Jurkat T-cell activation (anti-TCR, CD69 upregulation); assay type: cell-based
Method in brief: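 Jurkat cells in RPMI + 5% FBS preincubated with compound 1 h at 37 °C, then stimulated with anti-TCR C305 at 500 ng/ml for 20 h. CD69 surface expression stained with anti-CD69-APC and read by flow cytometry; IC50 versus solvent-only control.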

[12] = test system: Jurkat cells; assay: Jurkat toxicity, Cell Titer Glo assay; assay type: cell-based, human
Method: Seed 50 μl cells (1×10^6/ml) into each well containing 50 μl compound. […] Shake plates for 1 minute to mix cells and compound. Incubate plates at 37° C. […] Next day, harvest 50 μl cells from each well, add to 50 μl Cell Titer Glo reagent ([…]). Shake plates for 1 minute. Read on luminometer.

[13] = test system: B-cell line BJAB; assay: BJAB toxicity, Cell Titer Glo assay; assay type: cell-based
Method: Seed 50 μl cells (1×10^6/ml) into each well containing 50 μl compound. The final vehicle concentration is 0.5% DMSO, 1.5% MeOH. Shake plates for 1 minute to mix cells and compound. Incubate plates at 37° C. (5% CO2) for 18 hours. Next day, harvest 50 μl cells from each well, add to 50 μl Cell Titer Glo reagent ([…]). Shake plates for 1 minute. Read on luminometer.

[14] = target: T1, Syk kinase (Homo sapiens, UniProt P43405); assay: Syk kinase biochemical fluorescence polarization assay; conditions: isolated Syk kinase, fluorescence polarization, 4 uM ATP
T1 construct: purchased Upstate, Lake Placid NY

[15] = test system: cultured human mast cells (CHMC); assay: CHMC high cell density IgE activation: LTC4; assay type: cell-based
Method in brief: as §2

[16] = test system: bone marrow derived mast cells (BMMC); assay: BMMC high cell density IgE activation: hexosaminidase; assay type: cell-based, mouse; conditions: High Density section of TABLE 1, BMMC, anti-IgE activation, hexosaminidase; read-out: BMMC anti-IgE hexos. IC50
[17] = test system: bone marrow derived mast cells (BMMC); assay: BMMC high cell density IgE activation: histamine; assay type: cell-based, mouse; conditions: High Density section of TABLE 1, BMMC, anti-IgE activation, histamine; read-out: BMMC anti-IgE histamine IC50
Method: (§3) After sensitizing, cells are counted, pelleted (1000 rpm, 5-10 minutes), and resuspended at 1-3×10^6 cells/ml in MT buffer. Add 100 ul of cell suspension to each well and 100 ul of compound dilutions. The final vehicle concentration is 0.5% DMSO. Incubate at 37° C. (5% CO2) for 1 hour. After 1 hour of compound treatment, stimulate cells with 6× stimulus (60 ng/ml DNP-BSA). Mix wells with the cells and allow plates to incubate at 37° C. (5% CO2) for one hour. After 1 hour incubation, pellet cells (10 minutes, 1000 RPM) and collect 200 ul per well of the supernatant, being careful not to disturb pellet, and transfer to a clean tube or 96-well plate. Place the supernatant plate on ice. During the 4-5 hour step (see next) perform the hexosiminidase assay. Resuspend cell pellet in 240 ul WEI-conditioned media containing 0.5% DMSO and corresponding concentration of compound. Incubate BMMC cells for 4-5 hours at 37° C. (5% CO2). After incubation, pellet cells (1000 RPM, 10 minutes) and collect 225 ul per well and place in −80° C. until ready to perform ELISAS. ELISAS are performed on appropriately diluted samples (determined empirically for each donor cell population so that the sample measurement falls within the standard curve) following the supplier's instructions.

[18] = test system: bone marrow derived mast cells (BMMC); assay: BMMC high cell density IgE activation: LTC4; assay type: cell-based, mouse; conditions: High Density section of TABLE 1, BMMC, anti-IgE activation, LTC4; read-out: BMMC anti-IgE LTC4 IC50
Method: as §3

[19] = test system: bone marrow derived mast cells (BMMC); assay: BMMC high cell density IgE activation: TNFalpha; assay type: cell-based, mouse; conditions: High Density section of TABLE 1, BMMC, anti-IgE activation, TNFalpha; read-out: BMMC anti-IgE TNF-alpha IC50
Method in brief: (§4)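 Mediator release from sensitized BMMC: after 1 h compound exposure at 37 °C (0.5% DMSO), cells challenged with DNP-BSA for 1 h and early supernatant collected. Cells then recultured 4-5 h in conditioned medium with compound; cytokines IL-6 and TNFα quantified by ELISA.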

[20] = test system: bone marrow derived mast cells (BMMC); assay: BMMC high cell density IgE activation: IL-6; assay type: cell-based, mouse; conditions: High Density section of TABLE 1, BMMC, anti-IgE activation, IL-6; read-out: BMMC anti-IgE IL-6 IC50
Method in brief: as §4

[21] = test system: Syk kinase; assay: Phosphorylation of proteins in the FcεRI cascade in activated CHMC cells; assay type: cell-based, human; conditions: activated CHMC cells (FIG. 10)
Method: Following electrophoresis, the phosphorylation of the proteins indicated in FIGS. 7, 10 and 11A-D were assessed by immunoblot. Antibodies were purchased from Cell Signaling Technology, Beverley, Mass.

[22] = Low Density CHMC, ionomycin activation, tryptase release, read-out: CHMC Ionomycin Tryptase IC50
[23] = Low Density, read-out: CHMC anti-IgE Tryptase
[24] = Low Density, read-out: CHMC Ionomycin Tryptase

O=C(NCCO)c1cc2cc(Nc3ncc(F)c(Nc4cccc(O)c4)n3)ccc2o1 [Compound R926497]
IC50 ([1]; Low Density CHMC, anti-IgE activation, tryptase release, read-out: CHMC anti-IgE Tryptase IC50): 0.138 µM | IC50 [2, 22]: > 10 µM | IC50 [3]: 0.27 µM | IC50 [4]: 0.205 µM | IC50 [5]: > 10 µM | IC50 [6]: 1.11 µM | IC50 [7]: 1.23 µM | IC50 [8]: 1.33 µM | IC50 [9]: 1.88 µM | IC50 [10]: > 10 µM | IC50 [11]: 3.27 µM

O=C(c1cc2cc(Nc3ncc(F)c(Nc4ccc5c(c4)OCCO5)n3)ccc2o1)N1CCNCC1 [Compound R926501]
IC50 [5]: > 10 µM | IC50 [6]: > 2 µM | IC50 [7]: > 2 µM | IC50 [12]: > 4.33 µM | IC50 [13]: > 4.33 µM | IC50 [14]: 0.193 µM | IC50 [11]: 1.68 µM

Fc1cnc(Nc2cccc(OCCN3CCOCC3)c2)nc1Nc1ccc2c(c1)OCCO2 [Compound R926511]
IC50 [2, 22]: > 10 µM | IC50 [10]: > 2 µM | IC50 [12]: > 4.33 µM | IC50 [13]: > 4.33 µM

OCCOc1cccc(Nc2ncc(F)c(Nc3cccc(OCCO)c3)n2)c1 [Compound R935075]
IC50 [1, 23]: 0.93 µM | IC50 [2, 24]: > 10 µM | IC50 [6]: 0.647 µM | IC50 [7]: 1.21 µM | IC50 [15]: < 0.22 µM | IC50 [9]: > 2 µM | IC50 [12]: > 4.33 µM | IC50 [13]: > 4.33 µM | IC50 [11]: 5.37 µM

OCCOc1cccc(Nc2ncc(F)c(Nc3ccc4c(c3)OCCO4)n2)c1 [Compound R935154]
IC50 [1, 23]: 0.127 µM | IC50 [2, 24]: > 10 µM | IC50 [16]: 0.104 µM | IC50 [17]: 0.085 µM | IC50 [18]: 0.547 µM | IC50 [19]: 0.131 µM | IC50 [20]: 0.041 µM | IC50 [12]: > 4.33 µM | IC50 [11]: 1.65 µM

CC(C)Oc1ccc(Nc2nc(Nc3cccc(OCCO)c3)ncc2F)cc1 [Compound R935156]
IC50 [1, 23]: 0.149 µM | IC50 [2, 24]: > 10 µM | IC50 [16]: < 0.22 µM | IC50 [17]: < 0.22 µM | IC50 [18]: 0.433 µM | IC50 [19]: 0.22 µM | IC50 [20]: < 0.22 µM | IC50 [12]: 4.05 µM | IC50 [11]: 1.84 µM

Cc1cc(Nc2ncc(F)c(Nc3cccc(O)c3)n2)cc(Cl)c1O [Compound R940233]
IC50 [1, 23]: 0.132 µM | IC50 [2, 24]: > 10 µM | IC50 [6]: 0.577 µM | IC50 [7]: 0.642 µM | IC50 [8]: 0.586 µM | IC50 [15]: 0.118 µM | IC50 [9]: 2.25 µM | IC50 [10]: 1.78 µM | IC50 [12]: > 4.33 µM | IC50 [13]: > 4.33 µM | IC50 [14]: 0.151 µM | IC50 [11]: 2.17 µM

Nc1cccc(Nc2ncc(F)c(Nc3ccc4c(c3)OCCO4)n2)c1 [Compound R950207]
IC50 [1, 23]: 0.164 µM | IC50 [2, 24]: > 10 µM | IC50 [16]: < 0.22 µM | IC50 [17]: < 0.22 µM | IC50 [18]: 0.288 µM | IC50 [19]: < 0.22 µM | IC50 [20]: < 0.22 µM | IC50 [12]: > 4.33 µM | IC50 [11]: 1.08 µM

CC(C)(C)n1nc(-c2ccc(Cl)cc2)c2c(N)ncnc21 [PP2, reference compound]
phosphorylation of proteins downstream of LYN kinase but not Syk kinase [21]: inhibition of phosphorylation of proteins downstream of LYN kinase but not Syk kinase
